Experimental data taken from patent US4636498A, “Formulation of antiinflammatory drugs” (Pfizer Inc., priority 1985, dated 1987).
Several values for one entry are separate records, joined by “and”; a condition that tells them apart may be missing. Equal values may be shown once. Where a name gives a salt, the structure may show the parent alone. Read-outs that look alike come from different tables or passages of the source.

Legend:
[1] = test system: adjuvant-induced arthritis; experiment: Adjuvant-induced arthritis in the rat (inhibition of paw edema); assay type: in vivo, rat (male Wistar-Lewis); conditions: for % Inhibition of Lesions, Primary: day 4, injected paw; for % Inhibition of Lesions, Secondary: day 16, non-injected paw; for ED50: Rattus norvegicus, po, piroxicam alone, linear regression analysis
Description: Adjuvant arthritis was induced in adult male Wistar-Lewis rats weighing 250-270 grams each (Charles River Breeding Laboratories, Kingston, N.Y.) by a single subplantar injection of 1 mg of Mycobacterium butyricum (Difco Laboratories, Lot #0640-33) suspended in 0.1 ml mineral oil as described by Walz et al. (Proc. Soc. Exptl. Biol. Med., 136: 907-910, 1971). Seven rats were used in each group. Orally administered drugs were dissolved in water and dilute sodium hydroxide was added as necessary to ensure solution; control groups received only water. After neutralization of the solutions to pH 7.0, a volume of 10 ml/kg body weight was given by intubation with a blunt end, 18-gauge needle. Doses of each drug were given daily starting 1 day before the injection of adjuvant and continuing until 16 days after the induction of the arthritic lesion.
The initial hindpaw volumes (Vi) were measured on the day of adjuvant injection and the resultant swelling was determined on the injected paw (Vf - Vi) on the 4th day following the adjuvant injection. This was considered to be the primary response or lesion. The swelling (Vf - Vi) measured 16 days after adjuvant injection on the contralateral, non-injected hindpaw constituted the secondary response or lesion. The rats were weighed at the start of the experiments as well as 4 and 16 days after the induction of the disease. Percent inhibition of edema was calculated according to the following formula: [formula] […] This shift represents a 5 fold increase in the potency of piroxicam.

[2] = test system: gastric lesions induced by the ethanolamine salt of piroxicam; experiment: Gastric lesions in rats induced by the ethanolamine salt of piroxicam; assay type: in vivo, rat; conditions: for ED50: Rattus norvegicus, po, 6.5 h, linear regression analyses
Description: (§1) Adult male "specific pathogen free" rats weighing 140-160 grams of the CD strain (Sprague-Dawley) were obtained from Charles River Breeding Laboratories (Kingston, N.Y.). The animals were acclimated for approximately one week and tested when they reached a body weight of 200-225 grams. The rats were fasted for 16 hours and randomized into groups consisting of 8 to 10 animals which were normalized with regard to their average body weight. Gastric ulcers were induced in the animals by orally dosing the animals with a single 100 mg/kg dose of piroxicam solution containing the drug dissolved in 2 ml 0.1% methylcellulose in water (pH=6.8). Those animals receiving 2-guanidino-4-(2-methyl-4-imidazolyl)thiazole (0.3, 1.0, 3.3 or 10.0 mg/kg as the dihydrochloride salt) separately received that drug, dissolved in an additional 2 ml of the same medium, at about the same time. Six and one-half hours later, the animals were sacrificed by cervical dislocation and autopsied. The stomachs were surgically removed, dissected along the greater curvature and rinsed with cold water. The stomachs were individually scored for both linear and punctate lesions. The total number of lesions was used for scoring purposes. The data obtained from each group of rats was analyzed after calculation of the mean number +/- the standard error of total gastric lesions. The values obtained were also compared to the controls which received only piroxicam by the two-tailed Student's t-test for nonpaired data.
According to the preceding Example, gastric ulcers were induced by a single dose of 100 mg of the ethanolamine salt of piroxicam. Test groups received 0.3, 1.0 and 3.3 mg/kg doses of 2-guanidino-4-(2-methyl-4-imidazolyl)thiazole.
This test was repeated, using 120 mg of the ethanolamine salt of piroxicam to induce ulcers.
According to Examples 2 and 3, gastric ulcers were induced by a single dose of 120 mg of the ethanolamine salt of piroxicam. Test groups received 0.03, 0.10 and 0.33 mg/kg doses of 2-(N-pentyl-N'-guanidino)-4-(2-methyl-4-imidazolyl)thiazole dihydrochloride.

[3] = test system: indomethacin-induced gastric lesions; experiment: Prevention of indomethacin-induced gastric lesions in rats; assay type: in vivo, rat (male, CD strain); conditions: for ED50: Rattus norvegicus, po, mg/kg of free base, read-out: ID50 (the source's name)
Description: Rats for testing were ordered to arrive the week before being tested, and acclimated that first week. Male, CD strain rats were used. By ordering at 100-125 grams, body weights during the second week generally ranged from 150-200 grams. Rats were fasted the day before the test, with food removed from the gang cages no later than 4 p.m. Following an overnight fast a loss of 15-20 grams body weight was anticipated, so volumes of test solutions required for the following day could be estimated. Water was allowed ad lib overnight and during the test itself. On the test day both oral and intraperitoneal dosing was done with volumes of 4.0 ml/kg. Therefore, by knowing approximate body weights (and therefore required volumes) as well as drug doses (mg/kg) to be used, the amount of antiulcer drug and indomethacin needed was determined and preweighed into test tubes the day before the test. The antiulcer drugs to be tested, in the form of their dihydrochloride salts, were put into solution or suspended. Distilled water was normally the vehicle used. Indomethacin was suspended in saline and homogenized with a small drop of Tween 80 (polysorbate 80) to prevent aggregation of particles. The indomethacin will not stay suspended in the saline, and it is critical that the test tube be well vortexed and the drug resuspended before each dose is drawn into a syringe. A random sample of the rats to be tested (usually about 20% of the total test group) was used to determine average body weight of the group. […] The rats were removed from the gang cage, given the test drug or vehicle p.o., and placed in individual cages. The timing of antiulcer drug dosing relative to the indomethacin challenge varied depending on the specific protocol used. As a typical test consisted of 7 groups of 7 rats each, a predose time of 45 minutes was conveniently used. This allowed about one minute to orally dose each rat. Indomethacin was administered i.p. after the predose time had elapsed. In the typical test mentioned above, this required going back to the first rat and beginning indomethacin injections as soon as the drug dosing was completed. To keep the predose time consistent, rats were also given the indomethacin at a rate of about one per minute. If the test compound was not expected to have a long duration of action, it was desirable to administer a second dose of antiulcer drug during the test. The typical time between indomethacin administration and sacrifice is 6.5 hours. […] Of course, control animals were also dosed with vehicle at this time. The rats were sacrificed 6.5 hours after administration of the indomethacin. The stomachs were excised, opened along the greater curvature, and rinsed under running water. Lightly rubbing the mucosa while holding it in the stream of water helped to remove some mucus and large clots of blood, but vigorous rubbing was avoided as it may dislodge blood from the indomethacin-induced hemorrhagic erosions, making the erosions extremely difficult to see. Next the stomachs were placed flat, mucosa side up, on a tray covered with saline-soaked towels. The lesions were then counted, or the stomachs held overnight for examination the following day. If they were stored overnight, the stomachs were first moistened with saline and placed in a polyethylene bag and in a refrigerator. The indomethacin-induced gastric lesions usually appeared as dark brown or black colored erosions in the corpus (the acid-secreting portion) of the stomach. The dark coloration is caused by the action of the gastric acid on blood within the erosion. Lesions were either punctate or linear in nature. Quantitative determination of lesion size has shown that the average lesion length is about 1 mm. Regardless of size, each individual lesion was counted as one. However, if one group of animals obviously had lesions of a different nature than the controls, this fact was recorded. […]

[4] = test system: piroxicam-induced gastric lesions; experiment: Piroxicam-induced gastric lesions in rats; assay type: in vivo, rat (male, CD strain, Sprague-Dawley)
Description: as §1, with “The values obtained were also compared to the controls which received only piroxicam by the two-tailed Student's t-test for nonpaired data.” left out

[5] = test system: ethanol-induced ulcers; experiment: Inhibition of ethanol-induced ulceration in rats; assay type: in vivo, rat (male); conditions: as dihydrobromide salt
Description: The antiulcer activity of the products of Examples 9 and 10 was also determined by an ethanol-induced rat ulcer assay. In this test, overnight fasted male rats are given drug (at 30 or 3 mg/kg) or water orally fifteen minutes prior to an orally administered dose of absolute ethanol (1.0 ml). One hour after the ethanol challenge the animals (8/group) are killed and the stomachs examined for the presence of lesions. After sacrifice the abdomen is opened and a locking hemostat placed at the pylorus. Six ml of a 4% solution of formaldehyde was injected into the stomach with a gastric feeding tube and a second locking hemostat was used to seal the esophagus. The stomach was removed, opened along the greater curvature and examined for ulceration.
The scoring system used to quantitate the ethanol-induced lesions is given below.
For each group of animals an ulcer index is calculated as follows: [formula]
The percentage inhibition of ulcers is calculated as follows: [formula]

[6] = particularly with indomethacin; cited from earlier work
[7] = Compound A oral dose 10.0 mg/kg

Cc1nc(-c2csc(NC(=N)N)n2)c[nH]1.Cl.Cl [Compound A, 2-Guanidino-4-(2-methyl-4-imidazolyl)thiazole Dihydrochloride]
% Inhibition of Lesions, Primary ([1]; Compound A oral dose 1.0 mg/kg): 0 (6) %
% Inhibition of Lesions, Secondary ([1]; Compound A oral dose 1.0 mg/kg): 3 (3) %
% Inhibition of Lesions, Primary ([1]; Compound A oral dose 3.3 mg/kg): 0 (3) %
% Inhibition of Lesions, Secondary ([1]; Compound A oral dose 3.3 mg/kg): 28 (4) %
% Inhibition of Lesions, Primary [1, 7]: 2 (2) %
% Inhibition of Lesions, Secondary [1, 7]: 27 (3) %
Activity against secondary lesions (in words) ([1]; compound alone): significant activity against secondary lesions
Activity for primary lesions (in words) ([1]; compound alone): no significant activity
ED50 against secondary lesions (in words) ([1]; compound alone): no reliable ED50 could be extrapolated
Reduction in gastric lesions induced by the ethanolamine salt of piroxicam (in words) ([2]; 0.3-3.3 mg/kg, piroxicam ethanolamine salt 100 mg): significant reduction in gastric lesions
ED50 ([2]; piroxicam ethanolamine salt 100 mg): 0.88 mg/kg
ED50 ([2]; piroxicam ethanolamine salt 120 mg): 0.3 mg/kg
ED50 ([3]; single drug dose, obtained by extrapolation): 1.4 mg/kg
ED50 ([3]; two drug doses, obtained by extrapolation): 1.5 mg/kg
Reduction in lesion number ([3]; lowest dose tested, 2.2 mg/kg): 63%
Reduction of piroxicam-induced gastric lesions (in words) ([4]; 0.3-10 mg/kg p.o.): significantly reduced piroxicam-induced gastric lesions
ED50 ([4]; Rattus norvegicus, po, 6.5 h, linear regression analyses, piroxicam 100 mg/kg): 0.32 mg/kg

CCCCCCNc1nc(-c2csc(NC(=N)N)n2)c[nH]1 [Compound B, 2-Guanidino-4-(2-hexylamino-4-imidazolyl)thiazole]
ED50 ([3]; two drug doses): 10.5 mg/kg

Cc1nc(-c2csc(N=C(N)NCc3ccccc3)n2)c[nH]1 [Compound C, 2-(N-Benzyl-N'-guanidino)-4-(2-methyl-4-imidazolyl)thiazole Dihydrochloride]
ED50 ([3]; two drug doses): 4.4 mg/kg
Inhibition of ethanol-induced ulceration ([5]; oral dose 3 mg/kg): at least 40%
Inhibition of ethanol-induced ulceration ([5]; oral dose 30 mg/kg): at least 77%

N=C(N)Nc1nc(-c2c[nH]cn2)cs1 [Compound D, 2-guanidino-4-(4-imidazolyl)thiazole]
ED50 ([3]; single drug dose): 7.5 mg/kg
ED50 ([3]; two drug doses): 2 mg/kg

CCCCCNC(N)=Nc1nc(-c2c[nH]c(C)n2)cs1 [Example 10, 4-(2-Methyl-4-imidazolyl)-2-(N-pentyl-N'-guanidino)thiazole Dihydrochloride]
Reduction in gastric lesions induced by the ethanolamine salt of piroxicam (in words) ([2]; Example 13, 0.03-0.33 mg/kg): significant reduction in gastric lesions
ED50 ([2]; Example 13, piroxicam ethanolamine salt 120 mg): 0.1 mg/kg
Inhibition of ethanol-induced ulceration ([5]; oral dose 3 mg/kg): at least 40%
Inhibition of ethanol-induced ulceration ([5]; oral dose 30 mg/kg): at least 77%

CN1C(C(=O)Nc2ccccn2)=C(O)c2ccccc2S1(=O)=O [Piroxicam]
ED50 ([1]; 96 h, read-out: ED50 against primary lesions): 2.6 mg/kg
ED50 ([1]; 384 h, read-out: ED50 against secondary lesions): 0.45 mg/kg
% Inhibition of Lesions, Primary ([1]; piroxicam oral dose 0.10 mg/kg): 29 (4) %
% Inhibition of Lesions, Secondary ([1]; piroxicam oral dose 0.10 mg/kg, 0.1 mg/kg): 26 (2) % and 26%
% Inhibition of Lesions, Primary ([1]; piroxicam oral dose 0.33 mg/kg): 33 (8) %
% Inhibition of Lesions, Secondary ([1]; piroxicam oral dose 0.33 mg/kg, 0.33 mg/kg): 43 (4) % and 43%
% Inhibition of Lesions, Primary ([1]; piroxicam oral dose 1.00 mg/kg): 45 (7) %
% Inhibition of Lesions, Secondary ([1]; piroxicam oral dose 1.00 mg/kg, 1 mg/kg): 64 (3) % and 64%

N[C@@](CF)(Cc1c[nH]cn1)C(=O)O [alphafluoromethylhistidine]
Antiinflammatory activity (in words) [6]: synergistic antiinflammatory activity
